ChEMBL document CHEMBL5108067, “Discovery of Potent OTUB1/USP8 Dual Inhibitors Targeting Proteostasis in Non-Small-Cell Lung Cancer” (J Med Chem, 2022)

The molecules below were run against T1, Ubiquitin thioesterase OTUB1 (Homo sapiens, UniProt Q96FW1) (assay: Inhibition of N-terminal His-6 tagged OTUB1 (40 to 271 residues) (unknown origin) expressed in Escherichia coli BL21 (DE3) cells at 10 nM using Ub-Rho measured after 0.5 to 3 hrs by fluorescence based Plate reader method relative to control). Details: time 0.5-3 hrs, values are per cent of control.
T1 sequence (Q96FW1 whole entry, the tested form may be a part): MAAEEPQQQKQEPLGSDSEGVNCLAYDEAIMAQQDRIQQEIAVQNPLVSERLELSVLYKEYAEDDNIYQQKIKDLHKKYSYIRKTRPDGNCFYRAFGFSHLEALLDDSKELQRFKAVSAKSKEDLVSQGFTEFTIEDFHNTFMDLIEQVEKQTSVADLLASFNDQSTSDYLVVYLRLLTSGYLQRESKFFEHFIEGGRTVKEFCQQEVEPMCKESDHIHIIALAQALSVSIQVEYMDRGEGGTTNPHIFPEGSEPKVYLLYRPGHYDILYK

residual activity [%] | SMILES
66.9 | Cc1ccc(-c2nc3c(o2)C(=O)c2ccccc2C3=O)cc1
74.7 | CN1CC[C@@H](Oc2ccc(-c3nc4c(o3)C(=O)c3ccccc3C4=O)c(C(F)(F)F)c2)C1
44.5 | O=C1c2ccccc2C(=O)c2oc(-c3ccc(F)cc3F)nc21
59.2 | COc1ccccc1-c1nc2c(o1)C(=O)c1ccccc1C2=O
71.4 | COc1cc(-c2nc3c(o2)C(=O)c2ccccc2C3=O)ccc1C(F)(F)F
76.7 | CN1CC[C@@H](Oc2cccc(-c3nc4c(o3)C(=O)c3ccccc3C4=O)c2F)C1
56.2 | O=C1c2ccccc2C(=O)c2oc(-c3c(F)cccc3F)nc21
86.5 | CN(C)CCOc1cccc(-c2nc3c([nH]2)C(=O)c2ccccc2C3=O)c1
84.9 | COc1ccc(-c2nc3c(o2)C(=O)c2ccccc2C3=O)c(C(F)(F)F)c1
47.6 | O=C1c2ccccc2C(=O)c2oc(-c3ccc(F)cc3Cl)nc21
70.7 | CN1CC[C@@H](Oc2cccc(-c3nc4c(o3)C(=O)c3ccccc3C4=O)c2)C1
55.8 | O=C1c2ccccc2C(=O)c2oc(-c3ccc(F)cc3)nc21
55.4 | Cc1cccc(Cl)c1-c1nc2c(o1)C(=O)c1ccccc1C2=O
75.9 | CN1CCN(CCOc2cc(-c3nc4c(o3)C(=O)c3ccccc3C4=O)ccc2Cl)CC1
74.4 | COc1cc(Cl)cc(-c2nc3c(o2)C(=O)c2ccccc2C3=O)c1
69.8 | CN1CC[C@@H](Oc2ccc(-c3nc4c(o3)C(=O)c3ccccc3C4=O)cc2Cl)C1
53.7 | Cc1ccc(F)c(-c2nc3c(o2)C(=O)c2ccccc2C3=O)c1F
75 | CN1CC[C@@H](Oc2cc(Cl)cc(-c3nc4c(o3)C(=O)c3ccccc3C4=O)c2)C1
39.4 | O=C1c2ccccc2C(=O)c2oc(-c3c(F)c(F)cc(F)c3F)nc21
36.1 | O=C1c2ccccc2C(=O)c2oc(-c3ccc([N+](=O)[O-])cc3)nc21
55.5 | O=C1c2ccccc2C(=O)c2oc(-c3ccccc3F)nc21

What follows are molecules tested against T1, Ubiquitin thioesterase OTUB1 (assay: Inhibition of N-terminal His-6 tagged OTUB1 (40 to 271 residues) (unknown origin) expressed in Escherichia coli BL21 (DE3) cells at 100 nM using Ub-Rho measured after 0.5 to 3 hrs by fluorescence based Plate reader method relative to control). Details: time 0.5-3 hrs, values are per cent of control.

residual activity [%] | SMILES
58.7 | Cc1ccc(-c2nc3c(o2)C(=O)c2ccccc2C3=O)cc1
42.4 | CN1CC[C@@H](Oc2ccc(-c3nc4c(o3)C(=O)c3ccccc3C4=O)c(C(F)(F)F)c2)C1
19.4 | O=C1c2ccccc2C(=O)c2oc(-c3ccc(F)cc3F)nc21
28.3 | COc1ccccc1-c1nc2c(o1)C(=O)c1ccccc1C2=O
46.4 | COc1cc(-c2nc3c(o2)C(=O)c2ccccc2C3=O)ccc1C(F)(F)F
41.3 | CN1CC[C@@H](Oc2cccc(-c3nc4c(o3)C(=O)c3ccccc3C4=O)c2F)C1
24 | O=C1c2ccccc2C(=O)c2oc(-c3c(F)cccc3F)nc21
80.4 | CN(C)CCOc1cccc(-c2nc3c([nH]2)C(=O)c2ccccc2C3=O)c1
41.7 | COc1ccc(-c2nc3c(o2)C(=O)c2ccccc2C3=O)c(C(F)(F)F)c1
23.5 | O=C1c2ccccc2C(=O)c2oc(-c3ccc(F)cc3Cl)nc21
34 | CN1CC[C@@H](Oc2cccc(-c3nc4c(o3)C(=O)c3ccccc3C4=O)c2)C1
24.6 | O=C1c2ccccc2C(=O)c2oc(-c3ccc(F)cc3)nc21
23.5 | Cc1cccc(Cl)c1-c1nc2c(o1)C(=O)c1ccccc1C2=O
38.2 | CN1CCN(CCOc2cc(-c3nc4c(o3)C(=O)c3ccccc3C4=O)ccc2Cl)CC1
40.7 | COc1cc(Cl)cc(-c2nc3c(o2)C(=O)c2ccccc2C3=O)c1
38.5 | CN1CC[C@@H](Oc2ccc(-c3nc4c(o3)C(=O)c3ccccc3C4=O)cc2Cl)C1
22.7 | Cc1ccc(F)c(-c2nc3c(o2)C(=O)c2ccccc2C3=O)c1F
41.5 | CN1CC[C@@H](Oc2cc(Cl)cc(-c3nc4c(o3)C(=O)c3ccccc3C4=O)c2)C1
14.1 | O=C1c2ccccc2C(=O)c2oc(-c3c(F)c(F)cc(F)c3F)nc21
16.3 | O=C1c2ccccc2C(=O)c2oc(-c3ccc([N+](=O)[O-])cc3)nc21
27.3 | O=C1c2ccccc2C(=O)c2oc(-c3ccccc3F)nc21

The molecules below were run against T2, Ubiquitin carboxyl-terminal hydrolase 8 (Homo sapiens) (UniProt P40818) (assay: Inhibition of N-terminal His-6 tagged USP8 (734 to 1110 residues) (unknown origin) expressed in Escherichia coli BL21 (DE3) cells at 10 nM measured after 3 hrs by fluorescence based Plate reader method relative to control). Details: values are per cent of control.
T2 sequence (whole entry): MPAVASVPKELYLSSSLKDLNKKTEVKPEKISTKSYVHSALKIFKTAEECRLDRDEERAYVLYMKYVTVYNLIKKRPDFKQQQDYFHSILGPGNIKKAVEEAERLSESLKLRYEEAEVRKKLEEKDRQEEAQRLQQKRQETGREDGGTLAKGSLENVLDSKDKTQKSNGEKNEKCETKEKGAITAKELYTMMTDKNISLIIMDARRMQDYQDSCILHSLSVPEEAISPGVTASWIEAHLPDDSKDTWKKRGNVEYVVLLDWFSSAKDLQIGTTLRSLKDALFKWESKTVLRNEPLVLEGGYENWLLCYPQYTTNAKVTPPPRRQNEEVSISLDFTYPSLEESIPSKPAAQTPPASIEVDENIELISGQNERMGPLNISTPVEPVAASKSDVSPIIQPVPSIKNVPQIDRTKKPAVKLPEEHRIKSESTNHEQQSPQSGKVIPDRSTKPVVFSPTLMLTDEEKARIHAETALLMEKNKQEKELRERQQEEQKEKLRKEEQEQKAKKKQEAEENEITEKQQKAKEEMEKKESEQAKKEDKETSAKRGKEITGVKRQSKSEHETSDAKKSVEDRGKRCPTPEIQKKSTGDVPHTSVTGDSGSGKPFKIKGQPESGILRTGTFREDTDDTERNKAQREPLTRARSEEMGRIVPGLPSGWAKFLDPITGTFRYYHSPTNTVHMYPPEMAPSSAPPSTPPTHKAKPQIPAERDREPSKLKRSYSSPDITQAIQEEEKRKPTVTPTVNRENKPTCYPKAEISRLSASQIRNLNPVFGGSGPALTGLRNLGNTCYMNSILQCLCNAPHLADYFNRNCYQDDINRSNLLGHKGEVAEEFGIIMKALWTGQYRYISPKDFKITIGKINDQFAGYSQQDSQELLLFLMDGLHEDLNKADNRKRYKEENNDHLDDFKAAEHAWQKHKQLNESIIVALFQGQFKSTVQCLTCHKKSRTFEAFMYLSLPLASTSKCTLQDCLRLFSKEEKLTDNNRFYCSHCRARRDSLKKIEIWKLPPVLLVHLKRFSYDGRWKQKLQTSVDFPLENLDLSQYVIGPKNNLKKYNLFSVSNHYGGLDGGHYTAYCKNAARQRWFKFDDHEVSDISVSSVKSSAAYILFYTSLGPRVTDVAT

residual activity [%] | SMILES
58.6 | Cc1ccc(-c2nc3c(o2)C(=O)c2ccccc2C3=O)cc1
63.2 | CN1CC[C@@H](Oc2ccc(-c3nc4c(o3)C(=O)c3ccccc3C4=O)c(C(F)(F)F)c2)C1
34.7 | O=C1c2ccccc2C(=O)c2oc(-c3ccc(F)cc3F)nc21
43.9 | COc1ccccc1-c1nc2c(o1)C(=O)c1ccccc1C2=O
58.5 | COc1cc(-c2nc3c(o2)C(=O)c2ccccc2C3=O)ccc1C(F)(F)F
71.6 | CN1CC[C@@H](Oc2cccc(-c3nc4c(o3)C(=O)c3ccccc3C4=O)c2F)C1
39.1 | O=C1c2ccccc2C(=O)c2oc(-c3c(F)cccc3F)nc21
88.7 | CN(C)CCOc1cccc(-c2nc3c([nH]2)C(=O)c2ccccc2C3=O)c1
80.5 | COc1ccc(-c2nc3c(o2)C(=O)c2ccccc2C3=O)c(C(F)(F)F)c1
28.5 | O=C1c2ccccc2C(=O)c2oc(-c3ccc(F)cc3Cl)nc21
68.3 | CN1CC[C@@H](Oc2cccc(-c3nc4c(o3)C(=O)c3ccccc3C4=O)c2)C1
53.5 | O=C1c2ccccc2C(=O)c2oc(-c3ccc(F)cc3)nc21
40.1 | Cc1cccc(Cl)c1-c1nc2c(o1)C(=O)c1ccccc1C2=O
82 | CN1CCN(CCOc2cc(-c3nc4c(o3)C(=O)c3ccccc3C4=O)ccc2Cl)CC1
49 | COc1cc(Cl)cc(-c2nc3c(o2)C(=O)c2ccccc2C3=O)c1
65.5 | CN1CC[C@@H](Oc2ccc(-c3nc4c(o3)C(=O)c3ccccc3C4=O)cc2Cl)C1
62.1 | Cc1ccc(F)c(-c2nc3c(o2)C(=O)c2ccccc2C3=O)c1F
59.3 | CN1CC[C@@H](Oc2cc(Cl)cc(-c3nc4c(o3)C(=O)c3ccccc3C4=O)c2)C1
38.3 | O=C1c2ccccc2C(=O)c2oc(-c3c(F)c(F)cc(F)c3F)nc21
20.2 | O=C1c2ccccc2C(=O)c2oc(-c3ccc([N+](=O)[O-])cc3)nc21
37.1 | O=C1c2ccccc2C(=O)c2oc(-c3ccccc3F)nc21

These molecules were tested against T2, Ubiquitin carboxyl-terminal hydrolase 8 (Homo sapiens) (assay: Inhibition of N-terminal His-6 tagged USP8 (734 to 1110 residues) (unknown origin) expressed in Escherichia coli BL21 (DE3) cells at 100 nM measured after 3 hrs by fluorescence based Plate reader method relative to control). Details: values are per cent of control.

residual activity [%] | SMILES
44.6 | Cc1ccc(-c2nc3c(o2)C(=O)c2ccccc2C3=O)cc1
42.5 | CN1CC[C@@H](Oc2ccc(-c3nc4c(o3)C(=O)c3ccccc3C4=O)c(C(F)(F)F)c2)C1
19.3 | O=C1c2ccccc2C(=O)c2oc(-c3ccc(F)cc3F)nc21
21.4 | COc1ccccc1-c1nc2c(o1)C(=O)c1ccccc1C2=O
42.7 | COc1cc(-c2nc3c(o2)C(=O)c2ccccc2C3=O)ccc1C(F)(F)F
38.6 | CN1CC[C@@H](Oc2cccc(-c3nc4c(o3)C(=O)c3ccccc3C4=O)c2F)C1
37.4 | O=C1c2ccccc2C(=O)c2oc(-c3c(F)cccc3F)nc21
86.4 | CN(C)CCOc1cccc(-c2nc3c([nH]2)C(=O)c2ccccc2C3=O)c1
18.6 | COc1ccc(-c2nc3c(o2)C(=O)c2ccccc2C3=O)c(C(F)(F)F)c1
37.4 | O=C1c2ccccc2C(=O)c2oc(-c3ccc(F)cc3Cl)nc21
30 | CN1CC[C@@H](Oc2cccc(-c3nc4c(o3)C(=O)c3ccccc3C4=O)c2)C1
23.3 | O=C1c2ccccc2C(=O)c2oc(-c3ccc(F)cc3)nc21
15.5 | Cc1cccc(Cl)c1-c1nc2c(o1)C(=O)c1ccccc1C2=O
50.9 | CN1CCN(CCOc2cc(-c3nc4c(o3)C(=O)c3ccccc3C4=O)ccc2Cl)CC1
24 | COc1cc(Cl)cc(-c2nc3c(o2)C(=O)c2ccccc2C3=O)c1
31.2 | CN1CC[C@@H](Oc2ccc(-c3nc4c(o3)C(=O)c3ccccc3C4=O)cc2Cl)C1
30.5 | Cc1ccc(F)c(-c2nc3c(o2)C(=O)c2ccccc2C3=O)c1F
34.2 | CN1CC[C@@H](Oc2cc(Cl)cc(-c3nc4c(o3)C(=O)c3ccccc3C4=O)c2)C1
24.1 | O=C1c2ccccc2C(=O)c2oc(-c3c(F)c(F)cc(F)c3F)nc21
9.3 | O=C1c2ccccc2C(=O)c2oc(-c3ccc([N+](=O)[O-])cc3)nc21
19.2 | O=C1c2ccccc2C(=O)c2oc(-c3ccccc3F)nc21
